# Data published in patent publication US20200190172A1, “METHOD FOR DIAGNOSING/DETERMINING THE EFFECTIVENESS OF TREATMENT FOR DEPRESSION” (Centre National De La Recherche Scientifique, priority 2016, published 2020).
# Where no end group is shown, it is not given here.
# T1: TREK-1 potassium channel (Mus musculus, UniProt P97438)
# T1 construct: host or cells: living mice (endogenous channel)
# T1 sequence (P97438 1-426): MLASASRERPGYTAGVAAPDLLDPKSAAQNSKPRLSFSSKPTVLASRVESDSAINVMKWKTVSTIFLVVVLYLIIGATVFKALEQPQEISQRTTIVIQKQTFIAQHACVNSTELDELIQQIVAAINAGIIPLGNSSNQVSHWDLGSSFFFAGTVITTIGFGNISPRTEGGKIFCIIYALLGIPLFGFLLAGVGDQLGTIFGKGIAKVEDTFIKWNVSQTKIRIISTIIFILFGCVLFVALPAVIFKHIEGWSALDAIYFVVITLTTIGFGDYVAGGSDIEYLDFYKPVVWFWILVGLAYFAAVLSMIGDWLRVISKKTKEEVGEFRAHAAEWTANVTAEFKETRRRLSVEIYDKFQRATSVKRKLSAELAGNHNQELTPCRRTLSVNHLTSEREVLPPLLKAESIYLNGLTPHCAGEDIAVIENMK
# Assays:
# [1] = tested on: anti-spadin antibodies (AB1 polyclonal antibody); test: AlphaLISA competition assay: biotinylated spadin / anti-spadin antibody displaced by peptides; type: binding, rabbit; settings: for recognition by the anti-spadin antibodies (AB1): AlphaLISA, FIG. 1A-1C; for IC50: competition with 10 nM biotinylated spadin, antibody 1:1000
# Experimental: The antibody used was the AB1 antibody, as mentioned above.
# When two microbeads (acceptors and donors) were in close proximity, the signal was produced by a molecular interaction between the binding partners on the beads. The propeptide present in the serum sample was able to interfere with this interaction leading to competition. […] After the addition of donor and acceptor beads and an additional incubation for 2 hours at room temperature, the plates were read using an Enspire reader (Perkin). […] The quantity of propeptide was determined from its signal percent inhibition and calculated using the standard curve.
# [2] = tested on: mice; test: Porsolt Forced Swim Test (FST); type: in vivo, mice (C57BL/6J); settings: for immobility time compared to saline solution: FST, final 4 min of 6 min, p<0.0001 spadin, 12-27 PE, 22-28 PE, p=0.0026 14-25 PE; for Antidepressant activity: Porsolt Forced Swim Test, intravenous injection, mice
# Experimental: The experiments were performed on males of 20-25 g C57BL/6J of 8-10 weeks old (January France Elevage) in accordance with the policies on the welfare and use of laboratory animals set out in European Community Directive 2010/63/EU. The local ethics committee (CIEPAL) has approved the protocols used in this study (Protocol Number 00.893.02).
# After intravenous injection of saline solution or various tested peptides, the mice (n=10-12 per group) were placed individually in a cylinder (height: 30 cm, diameter: 15 cm) filled with water to a depth of 12 cm (temperature: 22±1° C.) for 6 min. The total immobility time was recorded during the final 4 min (Porsolt et al., 1977).
# [3] = tested on: AB2 polyclonal antibody; test: Recognition of PE fragments by AB2 polyclonal antibody (FIG. 1A); type: binding, rabbit
# Description: FIG. 1: FIG. 1A is a diagram representing the structure/recognition relationships of the antibodies AB1 and AB2 according to the different fragments. […] FIGS. 1B and 1C represent the relative affinities for spadin, PE and analogs assayed by the detection method.
# In particular, antibodies AB1 and AB2 were obtained by injecting into two rabbits, namely Oryctolagus cuniculus, spadin coupled to KLH (Keyhole limpet hemocyanin protein) (AB1) or mini-spadin (22-28 PE) coupled to KLH (AB2) on day 0, DO (1 mg), day 7, D7 (1 mg), day 14, D14 (1 mg) and day 29, D29 (1 mg). Blood samples, namely 20 ml, were taken on day 27 (D27) and day 42 (D42). The polyclonal serum was obtained by centrifuging at 1200×g for 10 min. The polyclonal serum corresponding to the supernatant was recovered. The immune response was checked by ELISA for each antibody. The antibodies contained in the serum were kept at −20° C.
# [4] = target: T1, TREK-1 potassium channel; settings: injected intravenously or intraperitoneally into mice; by inhibiting TREK-1 channel activity; cited from earlier work
# [5] = Stability of PE in human serum (AlphaLISA); type: in vitro ADME; settings: serum with or without EDTA, room temperature (22° C.), 24 h
# Experimental: FIG. 3: FIG. 3 is a histogram representing the stability of PE in the human serum. Serums with or without EDTA (n=7 for each matrix) from healthy blood donors were tested for their stability at room temperature for 24 h. The PE concentration for each incubation period was determined using an AlphaLISA assay method. The average concentrations at the different points in time are expressed as an average ±SEM.
# The antidepressant activity of the analogs was tested using the FST. […] (Ordinarily ANOVA, F5.54=20.21, **** p<0.0001 for spadin, 12-27 PE and 22-28 fragments compared to saline mice treated with a saline solution, ** p=0.0026 for 14-25 PE fragment compared to saline mice treated with a saline solution; error bars, average ±SEM). […] A study of the stability of PE in human serum was carried out. FIG. 3 is a histogram representing the stability of PE in human serum. Serums with or without EDTA (n=7 for each matrix) from healthy blood donors were tested for their stability at room temperature (22° C.) for 24 h. The PE concentration for each incubation period was determined using an AlphaLISA assay method. In FIG. 3, the average concentrations at the different time points are expressed as an average ±SEM. […] The unpaired t test for the PE concentration between serum and EDTA-serum indicated no significant difference for each time.
# [6] = target: polyclonal antibodies (AB1) directed against the peptide of sequence … (Spadin); test: AlphaLISA competition against biotinylated spadin (differs from Table 2)
# [7] = target: polyclonal antibodies (AB1) directed against the peptide of sequence … (Spadin); test: AlphaLISA competition, unlabelled peptide against 10 nM biotinylated spadin on AB1 (1:1000)
Molecule,recognition by the anti-spadin antibodies (AB1) [1],IC50 [1] [nM],Antidepressant activity [2],IC50 [7] [nM],also measured
"C[C@H](N)C(=O)NCC(=O)N[C@H]1CSSC[C@@H](C(=O)O)NC(=O)[C@H](CO)NC(=O)[C@H]([C@@H](C)O)NC(=O)[C@H](Cc2ccccc2)NC(=O)[C@H]([C@@H](C)O)NC(=O)[C@H](CCCCN)NC(=O)[C@H](Cc2c[nH]c3ccccc23)NC(=O)[C@H](Cc2ccccc2)NC(=O)[C@H](Cc2ccccc2)NC(=O)[C@H](CC(N)=O)NC(=O)[C@H](CCCCN)NC1=O [somatostatin-14, reference compound]",not recognized,,,,recognition by the anti-spadin antibodies (AB1) ([1]; listed as somatostatin): incapable of interfering
"APLPRWSGPIGVSWGL [12-27 PE, peptide fragment 12 to 27 of the propeptide]",recognized,1.73,showed an antidepressant activity and Yes,,recognition by the anti-spadin antibodies (AB1) ([1]; listed as SEQ ID NO 3): binds; immobility time compared to saline solution [2]: shorter immobility time
APLPRWSGPIGVSWGLR [spadin],recognized,2.5,showed an antidepressant activity,,recognition by the anti-spadin antibodies (AB1) ([1]; listed as SEQ ID NO 2): binds; immobility time compared to saline solution [2]: shorter immobility time; Antidepressant activity ([2]; listed as spadin 12-28 PE): Yes; binding by AB2 polyclonal antibody [3]: bound; antidepressant (AD) activities [4]: powerful antidepressant (AD) activities
"GVSWGLR [22-28 PE, peptide fragment 22 to 28 of the propeptide]",not recognized,> 1000,Yes,,recognition by the anti-spadin antibodies (AB1) ([1]; listed as SEQ ID NO 6): sole exception; immobility time compared to saline solution [2]: shorter immobility time; binding by AB2 polyclonal antibody [3]: bound
"LPRWSGPIGVSW [14-25 PE, peptide fragment 14 to 25 of the propeptide]",recognized,3.44,showed an antidepressant activity and Yes,,recognition by the anti-spadin antibodies (AB1) ([1]; listed as SEQ ID NO 4): binds; immobility time compared to saline solution [2]: shorter immobility time
"QDRLDAPPPPAAPLPR [1-16 PE, peptide fragment 1 to 16 of the propeptide]",not recognized,> 1000,No,,
QDRLDAPPPPAAPLPRWSGPIGVSWGLRAAAAGGAFPRGGRWRR [PE],,,,,stability of PE in human serum [5]: stability of the SLI measurement for 24 hours at room temperature
WSGPI [SEQ ID NO 5],binds,,,,
LPRWSGPIGVSW [14-25 PE],,,,3.44,IC50 [6]: 1.73 nM
GVSWGLR [22-28 PE],,,,> 1000,
QDRLDAPPPPAAPLPR [1-16 PE (pro-spadin)],,,,> 1000,
APLPRWSGPIGVSWGL [12-27 PE],,,,1.73,IC50 [6]: 3.44 nM
APLPRWSGPIGVSWGLR [spadin 12-28 PE],,,,2.5,
QDRLDAPPPPAAPLPRWSGPIGVSWGLRAAAAGGAFPRGGRWRR [Propeptide (PE) 44AA],,,,2.18,
